Measurements reported in patent US11643439B2, “Multi-target compound with anticoagulation and antiplatelet activity, preparation method therefor, and use thereof” (SHAANXI MICOT TECHNOLOGY LIMITED COMPANY, priority 2015, dated 2023).
Marks after values point to notes of the source that are not given here.

Key:
[1] = tested on: blood coagulation function; assay: PT in rabbits, single intravenous administration; assay type: in vivo, rabbit
Experimental: (§1) 1. Grouping and administration: 48 Rabbits were randomly divided into 6 groups, 8 rabbits per group. 1) Sham operation group (NS): Intravenous injection of the same volume of physiological saline; 2) positive control bivalirudin group (6 mg/kg); 3) positive control enoxaparin group (200 U/kg); 4) Low dose group of polypeptide 2 (3.0 mg/kg); 5) Medium dose group of polypeptide 2 (6.0 mg/kg); 6) High dose group of polypeptide 2 (12.0 mg/kg). Polypeptide 2 was administered by single intravenous administration. According to the body weight in kilograms of the rabbits, the sample was dissolved in 2 mL of physiological saline for single bolus injection. The sham operation group was administered with the same volume of physiological saline.
(§2) 3.2 Determination of blood coagulation function: Blood samples were taken and the blood function (PT, TT, APTT) was determined at 0 min before administration, at points of 5 min and 15 min after administration, using a platelet-aggregation coagulation factor analyzer. Blood samples were centrifuged at 3510 rpm for 8 min to obtain platelet poor plasma (PPP). Reagent reconstruction and preservation were performed according to the operation requirements of the kit. Immediately after each blood sample was placed into a test cup and then added with PT. TT and APTT reagents, the test was started. After the test was completed, results were recorded.

[2] = tested on: blood coagulation function; assay: TT in rabbits, intravenous maintenance administration; assay type: in vivo, rabbit; conditions: iv 8.0 + 20.0 (mg/kg+mg/kg/h)
Experimental: (§3) 2. Grouping and administration: 10 rabbits were randomly divided into 3 groups, 2 to 3 rabbits per group. 1) Sham operation group (NS): Intravenous injection of the same volume of physiological saline, with the same operation method as above; 2) polypeptide 2 administration group: 8.0 mg/kg+20.0 mg/kg/h; 3) positive control enoxaparin group: 50 U/kg+150 U/kg/h. According to the body weight in kilograms of the rabbits, the first dose of the drug to be tested was dissolved in 2 mL of physiological saline for single bolus injection. The maintaining dose was dissolved in 9 ml of physiological saline, and placed in a double-channel micro-injection pump, which was dripped off within 90 minutes at a dripping speed of […]. The sham operation group was administered with the same volume of physiological saline.
(§4) 4.2 Determination of blood coagulation function: Blood samples were taken and the blood function (PT, APTT) was determined at 0 min before administration, at points of 30 min, 60 min, 90 min after administration, and at points of 60 min, 120 min and 180 min after termination of administration, using a platelet-aggregation coagulation factor analyzer. Blood samples were centrifuged at 3510 rpm for 8 min to obtain platelet poor plasma (PPP). Reagent reconstruction and preservation were performed according to the operation requirements of the kit. Immediately after each blood sample was placed into a test cup and then added with PT, TT and APTT reagents, the test was started. After the test was completed, results were recorded.

[3] = tested on: blood coagulation function; assay: APTT in rabbits, single intravenous administration; assay type: in vivo, rabbit
Experimental: as §1, §2

[4] = tested on: platelet aggregation; assay: Platelet aggregation in rabbits, single intravenous administration; assay type: in vivo, rabbit
Experimental: as §1
3.1 Platelet aggregation rate: 2.7 ml of blood was taken from the femoral vein, rapidly injected into a centrifuge tube containing 0.3 ml of 3.8% sodium citrate solution, and fully mixed well. The resulted blood samples were centrifuged at 810 rpm (100 g) for 8 min to obtain PRP, which was taken out and centrifuged at 3500 rpm (1863 g) for 8 min to obtain PPP, which was used to determine platelet aggregation.
Blood samples were taken at a point before administration (0 min), and at points of administration for 5 min and 15 min, respectively, to determine the platelet aggregation rate, which was used to calculate the inhibitory rate of platelet aggregation with a calculation equation as follows: […]

[5] = tested on: blood coagulation function; assay: APTT in rats, intravenous maintenance administration; assay type: in vivo, rat
Experimental: 160 Rats were randomly divided into groups, 5 to 10 rats per group.
According to the body weight in kilograms of the rats, the first dose of a drug was dissolved in 2 mL of physiological saline for single bolus injection. The maintaining dose of drug was dissolved in 9 ml of physiological saline, and placed in a double-channel micro-injection pump, which was dripped off within 90 minutes at a dripping speed of 0.1 ml/min. The sham operation group was administered with the same volume of physiological saline.
The rats were fasted with free access to water overnight before the experiment.
The blood samples were taken before administration, administration for 60 minutes, and before termination of administration, respectively, to determine their activated partial thromboplastin time (APTT) and prothrombin time (PT). The blood samples were centrifuged at 3510 rpm for 8 minutes to obtain platelet poor plasma (PPP). Reagent reconstruction and preservation were performed according to the operation requirements of the kit. Immediately after each blood sample was placed into a test cup and then PT and APTT reagents were added, the test was started. After the test was completed, results were recorded.
5.1 Determination of blood coagulation function: The blood samples were taken 0 min before administration, administration for 60 minutes, and termination of administration, respectively, and then determined using a platelet-aggregation coagulation factor analyzer for the blood coagulation functions (PT. APTT) and ACT.

[6] = tested on: blood coagulation function; assay: PT in rabbits, intravenous maintenance administration; assay type: in vivo, rabbit; conditions: iv 8.0 + 20.0 (mg/kg+mg/kg/h)
Experimental: as §3, §4

[7] = single iv 3.0 mg/kg, Administration 5 min
[8] = single iv 3.0 mg/kg, Administration 15 min
[9] = single iv 3.0 mg/kg, Administration for 5 min
[10] = single iv 3.0 mg/kg, Administration for 15 min
[11] = single iv 3.0 mg/kg, Before administration
[12] = single iv 6.0 mg/kg, Administration 5 min
[13] = single iv 6.0 mg/kg, Administration 15 min
[14] = single iv 6.0 mg/kg, Administration for 5 min
[15] = single iv 6.0 mg/kg, Administration for 15 min
[16] = single iv 6.0 mg/kg, Before administration
[17] = single iv 12.0 mg/kg, Administration 5 min
[18] = single iv 12.0 mg/kg, Administration 15 min
[19] = single iv 12.0 mg/kg, Administration for 5 min
[20] = single iv 12.0 mg/kg, Administration for 15 min
[21] = single iv 12.0 mg/kg, Before administration
[22] = iv 0.041 + 0.125 (mg/kg + mg/kg/h)
[23] = iv 0.125 + 0.375 (mg/kg + mg/kg/h)
[24] = iv 0.25 + 0.75 (mg/kg + mg/kg/h)
[25] = iv 0.5 + 1.25 (mg/kg + mg/kg/h)
[26] = iv 1.5 + 3.75 (mg/kg + mg/kg/h)

D-Phe Pro Arg Pro Gly Gly Gly Gly Asn Gly Asp Phe Glu Glu Ile Pro Glu Glu Tyr Leu Glu Ala Ala Ala Lys Cys Har Gly Asp Trp Pro Cys [Polypeptide 2]
PT fold of prolongation [1, 7]: 1.5 ± 0.4
PT fold of prolongation [1, 8]: 1.2 ± 0.2
PT [1, 9]: 8.9 ± 1.2 S
PT [1, 10]: 7.0 ± 0.8 S
PT [1, 11]: 6.0 ± 0.3 S
PT fold of prolongation [1, 12]: 2.0 ± 0.4
PT fold of prolongation [1, 13]: 1.4 ± 0.3
PT [1, 14]: 12.9 ± 1.1*^#¥ S
PT [1, 15]: 8.9 ± 0.7 S
PT [1, 16]: 6.3 ± 0.2 S
PT fold of prolongation [1, 17]: 3.0 ± 0.8
PT fold of prolongation [1, 18]: 2.0 ± 0.6
PT [1, 19]: 19.2 ± 1.1 *^¥& S
PT [1, 20]: 12.5 ± 0.7 *^¥&@ S
PT [1, 21]: 6.5 ± 0.2 S
TT ([2]; Before administration): 26.8 ± 15.5 S
TT ([2]; Termination 120 min): 150.6 ± 3.5 S
TT ([2]; Termination 180 min): 28.2 ± 1.9 S
APTT fold of prolongation [3, 7]: 1.2 ± 0.2
APTT fold of prolongation [3, 8]: 1.0 ± 0.1
APTT [3, 9]: 24.4 ± 4.2*^¥ s
APTT [3, 10]: 20.0 ± 3.1 s
APTT [3, 11]: 20.6 ± 1.2 s
APTT fold of prolongation [3, 12]: 2.1 ± 0.6
APTT fold of prolongation [3, 13]: 1.5 ± 0.4
APTT [3, 14]: 50.5 ± 3.6*^& s
APTT [3, 15]: 34.9 ± 2.7*^& s
APTT [3, 16]: 24.1 ± 1.0 s
APTT fold of prolongation [3, 17]: 2.3 ± 0.6
APTT fold of prolongation [3, 18]: 1.6 ± 0.5
APTT [3, 19]: 54.4 ± 3.6*^& s
APTT [3, 20]: 37.0 ± 2.7*^& s
APTT [3, 21]: 23.3 ± 1.0 s
inhibitory rate of platelet aggregation [4, 9]: 17.2 ± 6.7%
inhibitory rate of platelet aggregation [4, 10]: 6.3 ± 7.0%
inhibitory rate of platelet aggregation [4, 14]: 47.5 ± 5.8*^#¥& %
inhibitory rate of platelet aggregation [4, 15]: 15.4 ± 6.0%
inhibitory rate of platelet aggregation [4, 19]: 72.5 ± 6.2*#^¥&@ %
inhibitory rate of platelet aggregation [4, 20]: 46.0 ± 6.5*^#¥&@ %
APTT Before administration [5, 22]: 24.54 ± 5.09
APTT Fold of change [5, 22]: 1.65 ± 0.84
APTT administration for 60 minutes [5, 22]: 37.29 ± 10.59
APTT Before administration [5, 23]: 24.05 ± 5.44
APTT Fold of change [5, 23]: 1.94 ± 0.68
APTT administration for 60 minutes [5, 23]: 44.55 ± 12.74
APTT Before administration [5, 24]: 24.98 ± 5.11
APTT Fold of change [5, 24]: 2.22 ± 1.12
APTT administration for 60 minutes [5, 24]: 53.13 ± 22.57
APTT Before administration [5, 25]: 22.03 ± 4.70
APTT Fold of change [5, 25]: 2.49 ± 1.38
APTT administration for 60 minutes [5, 25]: 52.29 ± 25.87
APTT Before administration ([5]; iv 1 + 2.5 (mg/kg + mg/kg/h)): 23.98 ± 6.83
APTT Fold of change ([5]; iv 1 + 2.5 (mg/kg + mg/kg/h)): 5.01 ± 3.00
APTT administration for 60 minutes ([5]; iv 1 + 2.5 (mg/kg + mg/kg/h)): 108.52 ± 56.27
APTT Before administration [5, 26]: 23.94 ± 4.49
APTT Fold of change [5, 26]: 3.19 ± 2.02
APTT administration for 60 minutes [5, 26]: 74.62 ± 49.41
PT ([6]; Administration 30 min): 12.7 ± 0.5 S
PT ([6]; Administration 60 min): 9.4 ± 2.0 S
PT ([6]; Administration 90 min): 11.6 ± 1.3 S
PT ([6]; Before administration): 7.7 ± 1.8 S
PT ([6]; Termination 60 min): 7.7 ± 0.0 S
PT ([6]; Termination 120 min): 7.1 ± 1.8 S
PT ([6]; Termination 180 min): 7.4 ± 1.3 S
